From patent publication EP4656642A1, “ESTROGEN RECEPTOR PROTEOLYSIS TARGETING CHIMERA COMPOUND AND USE THEREOF” (GAN & LEE PHARM CO., LTD, priority 2023, dated 2024)

Key:
Format in all cases: cell-based
[1] = target: T1, ERα (Homo sapiens, UniProt P03372); assay: Degradation of ERα in MCF-7 cells (immunoblotting, 4 h)
T1 sequence (P03372 1-595): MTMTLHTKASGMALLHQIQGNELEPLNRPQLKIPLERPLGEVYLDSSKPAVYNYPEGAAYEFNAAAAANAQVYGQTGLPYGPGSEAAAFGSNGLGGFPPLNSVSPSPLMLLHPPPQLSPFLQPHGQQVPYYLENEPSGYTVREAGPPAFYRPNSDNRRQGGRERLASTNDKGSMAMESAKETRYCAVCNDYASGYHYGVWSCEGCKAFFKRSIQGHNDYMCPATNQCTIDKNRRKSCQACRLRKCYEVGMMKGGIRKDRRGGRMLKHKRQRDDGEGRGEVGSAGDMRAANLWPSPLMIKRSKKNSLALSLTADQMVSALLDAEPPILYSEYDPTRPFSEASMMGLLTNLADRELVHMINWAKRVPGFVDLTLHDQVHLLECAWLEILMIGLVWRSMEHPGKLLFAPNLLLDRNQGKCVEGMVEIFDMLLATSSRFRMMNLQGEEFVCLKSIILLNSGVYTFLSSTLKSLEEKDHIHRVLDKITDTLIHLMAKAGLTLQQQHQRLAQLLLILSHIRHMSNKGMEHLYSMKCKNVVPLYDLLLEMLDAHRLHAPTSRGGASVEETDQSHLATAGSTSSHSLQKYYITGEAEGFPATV
Experimental: MCF-7 cells were inoculated into 6-well plates at a density of 3×10^5 cells/well and cultured at 37°C, 5% CO2 for 24h. After the cells were attached to the wall, 1µL of the compound solution in dimethyl sulfoxide (final concentration 0.15-1000nM) was added and continued to be cultured in incubator at 37°C with 5% CO2 for 4 h. After 4 h, the culture medium was discarded, and each well was washed once with pre-cooled 1×DPBS, and the cells were lysed with a mixture of 50 µL of RIPA lysis buffer (P0013B, Beyotime) and 1× protease inhibitor (P1005, Beyotime), and then centrifuged at 14,000 g for 30 min at 4°C after resting on ice for 20 min, and the supernatant was carefully collected to detect the protein level of ERα by protein immunoblotting (Immunoblotting).
Protein immunoblotting: The total protein concentration in the collected cell lysate supernatant was determined by BCA Protein Concentration Assay Kit (Enhanced) (P0009, Beyotime). According to the total protein concentration detected by BCA, the protein was adjusted to 1 µg/µL with RIPA lysis buffer and 5× SDS-PAGE protein loading buffer (MB01015, Genscript), and the protein was denatured by water bath at 95°C for 5 min, and then centrifuged after denaturation to enrich the condensate on the wall of the centrifuge tubes as a loading sample. […] At the end of electrophoresis, the proteins in the SDS-PAGE gels were transferred to a PVDF membrane at a constant voltage of 100 V for 60 min. After that, the PVDF membrane corresponding to ERα protein and internal reference protein was cut out and incubated in 1×QµickBlock blocking solution (P0252, Beyotime) for 30 min at room temperature on a shaker. […] Protein profiles were analyzed by Image Studio Lite analysis software for grayscale values. Grayscale correction values were calculated for each sample using the Formula: corrected grayscale value = grayscale value of the target protein /corresponding grayscale value of the internal reference. The degradation rate for the compounds was then calculated by comparing the corrected grayscale values of the compound group to the control group. Table 7 Degradation rate (%) of ERα by the PROTAC compounds of the present disclosure and positive control sample in MCF-7 cells

[2] = tested on: MCF-7 cells; assay: Inhibition of cell proliferation of MCF-7 cells (CCK-8, 9 days); details: treated for 9 days, CCK-8 kit (Table 6)
From the text: Test Example 4 Inhibitory effect of the PROTAC compounds disclosed in the present disclosure on cell proliferation of MCF-7 cells
The complete medium required for MCF-7 cells (source ATCC) was DMEM (gibco, Product number :11995-065) basal medium containing 10% fetal bovine serum. MCF-7 cells were inoculated in 96-well plates at a density of 800 cells/well, and different concentrations of the PROTAC compounds 1-55 provided in the embodiments of the present disclosure and a positive control sample ARV-471 (source: Innochem) were prepared to treat cells, and cells were treated at 37°C in a cell culture incubator with 5% CO2 for 9 days. Cell viability was detected using a CCK -8 kit (Beyotime , Product number: C0040) according to the manufacturer's instruction. […] Table 5 IC50 values for inhibition of the proliferation of MCF-7 cells by the PROTAC compounds of the present disclosure and positive control sample

[3] = target: T1, ERα; assay: Degradation of ERα in T-47D cells (immunoblotting, 4 h); parameters: host or cells: T-47D
Experimental: T-47D cells were inoculated into 6-well plates at a density of 3×10^5 cells/well and cultured at 37°C, 5% CO2 for 24 h. After the cells were attached to the wall, 1µL of the compound solution in dimethyl sulfoxide (final concentration 0.15-1000 nM) was added and continued to be cultured in the incubator with 5% CO2 at 37°C for 4 h. After 4 h, the culture medium was discarded, and each well was washed once with pre-cooled 1×DPBS, and the cells were lysed with a mixture of 50 µL of RIPA lysis buffer (P0013B, Beyotime) and 1× protease inhibitor (P1005, Beyotime), and then centrifuged at 14,000 g for 30 min at 4°C after resting on ice for 20 min, and the supernatant was carefully collected to detect the protein level of ERα by protein immunoblotting (Immunoblotting).

Structure (SMILES)	Degradation rate (%) of ERα in MCF-7 cells ([1]; 1nM compound) [%]	Degradation rate (%) of ERα in MCF-7 cells ([1]; 10nM compound) [%]	IC50 [2] [nM]	Degradation rate (%) of ERα in T-47D cells ([3]; 1nM compound) [%]	Degradation rate (%) of ERα in T-47D cells ([3]; 10nM compound) [%]
O=C1CCC(N2Cc3c(ccc4c3OCC43CCN(CC(=O)N4CCC5(CC4)CCN(c4ccc([C@@H]6c7ccc(O)cc7CC[C@@H]6c6ccccc6)cc4)C5)CC3)C2=O)C(=O)N1 (stereo partly shown) [A72]	33	64	6840	39	51
O=C1CCC(N2Cc3c(ccc4c3OCC43CCN(CC(=O)N4CCC5(CCN(c6ccc([C@@H]7c8ccc(O)cc8CC[C@@H]7c7ccccc7)cc6)CC5)C4)CC3)C2=O)C(=O)N1 (stereo partly shown) [A73]	26	72	4170	55	73
O=C1CCC(N2Cc3cc4c(cc3C2=O)CCC2(CN(C(=O)CN3CCC5(CCN(c6ccc([C@@H]7c8ccc(O)cc8CC[C@@H]7c7ccccc7)cc6)CC5)C3)C2)O4)C(=O)N1 (stereo partly shown) [A76]	-6	12	19300	40	68
O=C1CCC(N2Cc3cc4c(cc3C2=O)OC2(CC4)CN(C(=O)CN3CCC4(CCN(c5ccc([C@@H]6c7ccc(O)cc7CC[C@@H]6c6ccccc6)cc5)CC4)C3)C2)C(=O)N1 (stereo partly shown) [A77]	29	61	52100	54	78
O=C1CCC(N2Cc3cc4c(cc3C2=O)OC2(CC4)CN(C3CCN(C(=O)C4CCN(c5ccc([C@@H]6c7ccc(O)cc7CC[C@@H]6c6ccccc6)cc5)CC4)CC3)C2)C(=O)N1 (stereo partly shown) [A82]	16	51	448	51	78
O=C1CCC(N2Cc3c(ccc4c3OCC43CCN(C4CCN(S(=O)(=O)C5CCN(c6ccc([C@@H]7c8ccc(O)cc8CC[C@@H]7c7ccccc7)cc6)CC5)CC4)CC3)C2=O)C(=O)N1 (stereo partly shown) [A122]	40	51	14800	56	65
O=C1CCC(N2Cc3c(ccc4c3OCC43CCN(C(=O)CC4CCN(c5ccc([C@@H]6c7ccc(O)cc7CC[C@@H]6c6ccccc6)cc5)CC4)CC3)C2=O)C(=O)N1 (stereo partly shown) [A124]	18	20	56400	52	52

The next compounds have a lower IC50 [2] than those just listed; values first:

Degradation rate (%) of ERα in MCF-7 cells ([1]; 1nM compound) [%]	Degradation rate (%) of ERα in MCF-7 cells ([1]; 10nM compound) [%]	IC50 [2] [nM]	Degradation rate (%) of ERα in T-47D cells ([3]; 1nM compound) [%]	Degradation rate (%) of ERα in T-47D cells ([3]; 10nM compound) [%]	Structure (SMILES)
18	71	41.9	40	75	O=C1CCC(N2Cc3cc4c(cc3C2=O)OC2(CC4)CN(C(=O)CN3CCC4(CC3)CCN(c3ccc([C@@H]5c6ccc(O)cc6CC[C@@H]5c5ccccc5)cc3)CC4)C2)C(=O)N1 (stereo partly shown) [A70]
23	46	39	40	62	O=C1CCC(N2Cc3c(ccc4c3OCC43CCN(C(=O)C4CCC5(CC4)CN(c4ccc([C@@H]6c7ccc(O)cc7CC[C@@H]6c6ccccc6)cc4)C5)CC3)C2=O)C(=O)N1 (stereo partly shown) [A83]
-39	20	22.3	-33	45	O=C1CCC(N2Cc3c(ccc4c3OCC43CCN(C4CC5(CCC6(CC5)CN(c5ccc([C@@H]7c8ccc(O)cc8CC[C@@H]7c7ccccc7)cc5)C6)C4)CC3)C2=O)C(=O)N1 (stereo partly shown) [A81]
12	66	19.4	51	73	C[C@@H]1Cc2c([nH]c3ccccc23)[C@@H](c2c(F)cc(N3CCC4(CCN(C(=O)CN5CCC6(CC5)COc5c6ccc6c5CN(C5CCC(=O)NC5=O)C6=O)C4)CC3)cc2F)N1CC(F)F (stereo partly shown) [A119]
-7	55	16.3	38	79	C[C@@H]1Cc2c([nH]c3ccccc23)[C@@H](c2c(F)cc(N3CCC4(CCN(C(=O)CN5CCC6(CC5)COc5c6ccc6c5CN(C5CCC(=O)NC5=O)C6=O)CC4)CC3)cc2F)N1CC(F)F (stereo partly shown) [A118]
32	73	14.5	52	86	O=C1CCC(N2Cc3c(ccc4c3OCC43CCN(CCN4CCC5(CC4)CCN(c4ccc([C@@H]6c7ccc(O)cc7CC[C@@H]6c6ccccc6)cc4)CC5)CC3)C2=O)C(=O)N1 (stereo partly shown) [A71]
16	14	7.71	53	76	O=C1CCC(N2Cc3c(ccc4c3OCC43CCN(C(=O)CN4CCC5(CC4)CCN(c4ccc([C@@H]6c7ccc(O)cc7CC[C@@H]6c6ccccc6)cc4)C5)CC3)C2=O)C(=O)N1 (stereo partly shown) [A75]
63	74	5.26	56	77	O=C1CCC(N2Cc3c(ccc4c3OCC43CCN(C4CCN(C(=O)C5CCC6(CC5)CN(c5ccc([C@@H]7c8ccc(O)cc8CC[C@@H]7c7ccccc7)cc5)C6)CC4)CC3)C2=O)C(=O)N1 (stereo partly shown) [A84]
64	78	3.35	79	89	O=C1CCC(N2Cc3c(ccc4c3OCC43CCN(C4CCN(C(=O)C5CCN(c6ccc([C@@H]7c8ccc(O)cc8CC[C@@H]7c7ccccc7)cc6)CC5)CC4)CC3)C2=O)C(=O)N1 (stereo partly shown) [A78]
45	47	2.59	40	60	O=C1CCC(N2Cc3c(ccc4c3OCC43CCN(CC(=O)N4CCC(C#Cc5ccc([C@@H]6c7ccc(O)cc7CC[C@@H]6c6ccccc6)cc5)CC4)CC3)C2=O)C(=O)N1 (stereo partly shown) [A79]
